Measurements: paper PMC8707586, “New Inhibitors of Laccase and Tyrosinase by Examination of Cross-Inhibition between Copper-Containing Enzymes” (International Journal of Molecular Sciences, 2021)

Experiments:
[1] = molecular target: A. oryzae laccase; assay: Laccase activity assay (L-DOPA substrate), A. oryzae; format: biochemical, Aspergillus oryzae; conditions: Ki from IC50 by Cheng–Prusoff, 0.01% Triton X-100
Procedure: (§1) Enzyme activity with inhibitors—All chemical reagents were purchased from either Tokyo Chemical Industry (Tokyo, Japan), ChemBridge (San Diego, CA, USA), or Sigma-Aldrich (St. Louis, MO, USA). The reaction mixture for the tyrosinase assay comprised 20 nM tyrosinase and 500 µM L-DOPA in phosphate-buffered saline. The solution for the ceruloplasmin activity assay comprised 20 nM ceruloplasmin and 500 µM N,N-dimethyl-p-phenylenediamine (DMPD) in 100 mM of sodium acetate buffer at a pH of 5.5. The DBH activity assay was conducted in a reaction mixture containing 10 nM DBH, 500 µM DMPD, and 500 µM tyramine. The solution for the laccase activity assay comprised either 150 nM T. versicolor laccase or 350 nM A. oryzae laccase and 500 µM L-DOPA in 100 mM sodium phosphate buffer with a pH of 5.5. All the solutions included 0.01% Triton X-100 and 5% DMSO in the absence or presence of the inhibitor. After the addition of inhibitors, the solutions were incubated for 15 min at 30 °C. The absorbances of tyrosinase, laccase, ceruloplasmin, and DBH were measured at 475, 475, 550, and 515 nm, respectively, after the addition of substrate to the mixture solution, in a time-dependent manner. […] The Cheng–Prusoff equation with Km was employed to convert the IC50 value into the inhibitory constant, Ki, for each inhibitor [46].

[2] = molecular target: A. oryzae laccase; assay: Enzyme inhibitory kinetics, A. oryzae laccase; format: biochemical, Aspergillus oryzae; conditions: read-out: ** Ki, simulated inhibitory constant by nonlinear fitting assuming competitive inhibition
Procedure: (§2) Enzyme inhibitory kinetics—The velocities during the generation of the product for each enzyme were measured by varying the substrate and inhibitor concentrations. Simultaneous and nonlinear fitting of all profiles in an inhibitor minimized the Χ^2 value of the differences of theoretical and experimental values in the Michaelis–Menten equation, expressed with the competitive, uncompetitive, noncompetitive, and mixed models. […] The reduced Χ^2 values between the models were compared based on F-statistic to select the most appropriate model. All fittings and statistical analyses were conducted using MATLAB from MathWorks (Natick, MA, USA).

[3] = tested on: laccases; assay: Enzyme inhibitory kinetics, laccases from both sources together; format: biochemical, T. versicolor and A. oryzae; conditions: nonlinear fitting of enzyme kinetics
Procedure: as §2

[4] = tested on: laccases; assay: Laccase activity assay, statements on both laccases together; format: biochemical, T. versicolor and A. oryzae; conditions: 50 μM
Procedure: as §1

[5] = molecular target: T1, mushroom tyrosinase (Agaricus bisporus, UniProt C7FF04); assay: Tyrosinase enzyme activity assay (L-DOPA substrate); format: biochemical
T1 sequence (C7FF04 1-392): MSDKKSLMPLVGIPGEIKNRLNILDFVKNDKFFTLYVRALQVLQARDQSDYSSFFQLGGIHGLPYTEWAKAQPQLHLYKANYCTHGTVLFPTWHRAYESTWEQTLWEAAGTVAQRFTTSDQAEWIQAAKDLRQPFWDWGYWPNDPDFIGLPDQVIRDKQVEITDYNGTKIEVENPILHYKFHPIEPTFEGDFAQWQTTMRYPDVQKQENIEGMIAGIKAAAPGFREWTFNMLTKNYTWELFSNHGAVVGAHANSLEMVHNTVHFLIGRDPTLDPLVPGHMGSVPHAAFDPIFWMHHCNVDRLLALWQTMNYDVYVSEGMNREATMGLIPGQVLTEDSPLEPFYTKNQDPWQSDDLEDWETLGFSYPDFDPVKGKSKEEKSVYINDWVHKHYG
Procedure: as §1

[6] = molecular target: T1, mushroom tyrosinase; parameters: method as in PMID 24074025; conditions: cited from earlier work
[7] = molecular target: T2, dopamine-β-hydroxylase (DBH) (Homo sapiens, UniProt P09172); assay: DBH activity assay (DMPD, tyramine); format: biochemical; conditions: for Ki: Ki from IC50 by Cheng–Prusoff
T2 construct: purchased
T2 sequence (P09172 1-617): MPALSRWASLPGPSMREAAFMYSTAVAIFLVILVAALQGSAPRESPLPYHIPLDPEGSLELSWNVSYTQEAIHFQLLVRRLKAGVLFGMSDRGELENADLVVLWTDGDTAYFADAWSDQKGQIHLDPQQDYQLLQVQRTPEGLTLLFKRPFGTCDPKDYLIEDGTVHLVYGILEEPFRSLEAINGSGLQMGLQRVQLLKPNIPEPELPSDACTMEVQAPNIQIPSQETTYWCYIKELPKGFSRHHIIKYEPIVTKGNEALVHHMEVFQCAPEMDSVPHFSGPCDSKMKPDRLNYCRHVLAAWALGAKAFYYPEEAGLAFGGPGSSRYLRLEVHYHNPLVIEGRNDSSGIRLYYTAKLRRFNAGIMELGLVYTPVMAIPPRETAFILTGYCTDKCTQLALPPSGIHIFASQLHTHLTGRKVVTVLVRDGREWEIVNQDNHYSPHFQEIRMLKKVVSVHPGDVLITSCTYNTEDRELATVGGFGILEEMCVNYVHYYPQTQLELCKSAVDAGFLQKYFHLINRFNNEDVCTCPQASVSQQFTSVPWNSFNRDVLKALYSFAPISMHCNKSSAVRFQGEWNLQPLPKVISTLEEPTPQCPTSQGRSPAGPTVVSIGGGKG
Procedure: as §1

[8] = molecular target: T3, ceruloplasmin (Homo sapiens, UniProt P00450); assay: Ceruloplasmin activity assay (DMPD substrate); format: biochemical; conditions: Ki from IC50 by Cheng–Prusoff
T3 construct: purchased
T3 sequence (P00450 20-1065): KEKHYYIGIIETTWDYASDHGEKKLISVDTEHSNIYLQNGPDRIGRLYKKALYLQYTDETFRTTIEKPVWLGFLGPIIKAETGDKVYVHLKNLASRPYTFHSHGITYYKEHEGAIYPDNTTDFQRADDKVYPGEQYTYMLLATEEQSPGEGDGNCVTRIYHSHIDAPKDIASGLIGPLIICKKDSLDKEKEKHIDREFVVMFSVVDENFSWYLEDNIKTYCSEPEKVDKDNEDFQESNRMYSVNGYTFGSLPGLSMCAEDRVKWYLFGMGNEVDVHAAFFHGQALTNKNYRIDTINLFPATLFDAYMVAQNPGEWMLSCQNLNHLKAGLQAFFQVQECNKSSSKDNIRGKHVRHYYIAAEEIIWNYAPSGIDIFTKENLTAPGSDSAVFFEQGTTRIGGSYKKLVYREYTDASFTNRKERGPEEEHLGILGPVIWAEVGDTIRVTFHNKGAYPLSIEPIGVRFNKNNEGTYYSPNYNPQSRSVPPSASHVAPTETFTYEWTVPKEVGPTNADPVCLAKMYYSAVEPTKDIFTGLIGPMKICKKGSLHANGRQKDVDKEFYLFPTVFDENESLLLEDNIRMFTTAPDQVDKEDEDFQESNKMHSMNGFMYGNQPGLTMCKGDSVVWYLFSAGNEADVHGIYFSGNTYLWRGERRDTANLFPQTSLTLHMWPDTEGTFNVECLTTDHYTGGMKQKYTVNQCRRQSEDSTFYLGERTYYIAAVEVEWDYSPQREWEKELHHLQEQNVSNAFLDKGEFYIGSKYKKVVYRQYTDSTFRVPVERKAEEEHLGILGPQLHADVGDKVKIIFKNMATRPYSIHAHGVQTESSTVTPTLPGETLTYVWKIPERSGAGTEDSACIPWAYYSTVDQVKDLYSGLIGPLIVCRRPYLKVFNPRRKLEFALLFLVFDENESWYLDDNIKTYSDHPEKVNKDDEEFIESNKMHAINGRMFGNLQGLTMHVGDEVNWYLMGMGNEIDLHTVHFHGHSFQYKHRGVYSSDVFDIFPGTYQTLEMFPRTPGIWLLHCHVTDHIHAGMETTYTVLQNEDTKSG
Procedure: as §1

[9] = molecular target: T4, T. versicolor laccase (Trametes versicolor, UniProt Q12718); assay: Laccase activity assay (L-DOPA substrate), T. versicolor; format: biochemical; conditions: Ki from IC50 by Cheng–Prusoff, 0.01% Triton X-100
T4 sequence (Q12718 21-519): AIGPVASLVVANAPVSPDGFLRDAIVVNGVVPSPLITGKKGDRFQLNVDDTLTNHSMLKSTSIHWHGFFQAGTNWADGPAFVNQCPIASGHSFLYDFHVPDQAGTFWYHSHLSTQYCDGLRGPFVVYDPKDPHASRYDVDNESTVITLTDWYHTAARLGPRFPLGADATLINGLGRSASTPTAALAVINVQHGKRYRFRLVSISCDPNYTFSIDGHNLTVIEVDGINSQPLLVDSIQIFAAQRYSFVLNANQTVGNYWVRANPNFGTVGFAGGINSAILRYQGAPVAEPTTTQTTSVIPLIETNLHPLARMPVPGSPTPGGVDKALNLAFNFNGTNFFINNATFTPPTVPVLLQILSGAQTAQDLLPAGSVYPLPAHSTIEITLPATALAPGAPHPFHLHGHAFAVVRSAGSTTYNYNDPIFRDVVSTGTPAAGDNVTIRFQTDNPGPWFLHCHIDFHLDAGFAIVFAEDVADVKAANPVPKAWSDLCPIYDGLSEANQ
Procedure: as §1

Compound | Ki [1] | Ki [2] | Mechanism of inhibition [3] | inhibitory activities against laccases [4] | inhibition of DBH activity [7] | Ki [7] | also measured
S=c1[nH]cnc2nc[nH]c12 [compound 1, mercaptopurine] | 15.1 ± 4.6 µM | 17.2 µM | Competitive | substantial inhibitory activities |  |  | Ki ([1]; listed as mercaptopurine): 15 µM; Mechanism of inhibition ([3]; listed as mercaptopurine): competitive mode
Nc1nc2nc[nH]c2c(=S)[nH]1 [compound 2, thioguanine] | 21.2 ± 1.7 µM | 26.2 µM | Competitive | substantial inhibitory activities |  |  | Ki ([1]; listed as thioguanine): 21 µM; Mechanism of inhibition ([3]; listed as thioguanine): competitive mode
C[C@H](CS)C(=O)N1CCC[C@H]1C(=O)O [compound 11, captopril] | 26.3 ± 2.4 µM | 32.4 µM | Competitive | substantial inhibitory activities |  |  | Ki ([1]; listed as captopril): 26 µM; inhibition of tyrosinase activity [5]: inhibits tyrosinase activity; inhibition of tyrosinase (words, literature) [6]: slightly inhibited; Mechanism of inhibition ([3]; listed as captopril): competitive mode
O=c1cc(CO)occ1O [compound 12, kojic acid] | > 1000 µM |  |  |  |  |  | 
Cn1cc[nH]c1=S [compound 16, methimazole] |  |  |  |  |  |  | inhibition of DBH at single concentration ([7]; 50 µM): neither methimazole nor other thione-containing test molecules significantly inhibited DBH
OCC(S)CS (stereo not drawn) [compound 18, dimercaptopropanol] | 18.6 ± 3.3 µM | 18 µM | Competitive | substantial inhibitory activities | moderate inhibition | 57.9 ± 7.6 µM | Ki ([1]; listed as dimercaptopropanol): 18 µM; Mechanism of inhibition ([3]; listed as dimercaptopropanol): competitive mode
O=C(O)C(S)C(S)C(=O)O (stereo not drawn) [compound 19, dimercaptosuccinate] | 37.3 ± 5.6 µM | 13.1 µM | Competitive | substantial inhibitory activities |  |  | Ki ([1]; listed as dimercaptosuccinate): 37 µM; Mechanism of inhibition ([3]; listed as dimercaptosuccinate): competitive mode
NC(=S)Nc1ccccc1 [compound 24, phenylthiourea (PTU)] | > 1000 µM |  |  |  |  |  | 
O=c1cccccc1O [compound 26, tropolone] | > 1000 µM |  |  |  | significantly decreased DBH activity | 9.3 ± 5.5 µM | 
[N-]=[N+]=[N-].[Na+] [compound 27, sodium azide] | 3.1 ± 1.7 µM |  |  |  | moderate inhibition | 70.6 ± 11.6 µM | Ki ([1]; listed as sodium azide): 3 µM; Ki [8]: 1.6 ± 0.3 µM; Ki [9]: 4.2 ± 1.3 µM; Ki ([9]; listed as sodium azide): 4 µM
[NH4+].[NH4+].[SH-].[SH-].[S]=[Mo]=[S] [compound 28, ammonium tetrathiomolybdate (ATMD)] | 10.5 ± 2.5 µM |  |  |  | significantly decreased DBH activity | 23.7 ± 2.7 µM | Ki ([1]; listed as AMTD): 10 µM; Ki [8]: 10.9 ± 1.4 µM; Ki [9]: 12.3 ± 1.3 µM; Ki ([9]; listed as AMTD): 12 µM
